The record followed here is patent publication US6608085B1, “4-quinolinemethanol derivatives as purine receptor antagonists (II)” (Vernalis Research Limited, priority 1998, dated 2003).

The subject of the experiment is haloperidol-induced deficits in locomotor activity in mice. Description: Haloperidol-induced hypolocomotion model. Format: in vivo. Conditions: 10 mg/kg intraperitoneally, haloperidol 0.2 mg/kg. From the text: This approach is also considered a valid method for screening drugs with potential antiparkinsonian effects. Thus, the ability of novel adenosine antagonists to block haloperidol-induced deficits in locomotor activity in mice can be used to assess both in vivo and potential antiparkinsonian efficacy.
Female TO mice (25-30 g) obtained from TUCK, UK, are used for all experiments. Animals are housed in groups of 8 [cage size—40 (width)×40 (length)×20 (height)cm] under 12 hr light/dark cycle (lights on 08:00 hr), in a temperature (20±2° C.) and humidity (55±15%) controlled environment. Animals have free access to food and water, and are allowed at least 7 days to acclimatize after delivery before experimental use.
Liquid injectable haloperidol (1 ml Serenance ampoules from Baker Norton, Harlow, Essex, each containing haloperidol BP 5 mg, batch #P424) are diluted to a final concentration of 0.02 mg/ml using saline. Novel test compounds are typically prepared as aqueous suspensions in 8% Tween. All compounds are administered intraperitoneally in a volume of 10 ml/kg.
1.5 hours before testing, mice are administered 0.2 mg/kg haloperidol, a dose that reduces baseline locomotor activity by at least 50%. […] Horizontal locomotor activity is determined by placing the cages within a frame containing a 3×6 array of photocells linked to a computer, which tabulates beam breaks. […]

`O[C@@H](c1cc(C(F)(F)F)nc2ccccc12)[C@H]1CCCCN1` (relative stereo) [Example 39, (11S*, 2′R*)-α-(2-Piperidinyl)-2-trifluoromethyl-4-quinolinemethanol (Racemic)]: the “reversal of haloperidol-induced hypolocomotion” value is “significantly reversed”.
